The source of these data is ChEMBL document CHEMBL1133938, “Parallel solid-phase synthesis of zatebradine analogues as potential I(f) channel blockers” (2001).

The structures appear in SMILES notation.

The inhibition is the change of the read-out against control, counted positive when it falls. A lower inhibition goes with little suppression.

This assay is filed under the species Cavia porcellus. The assay is described as follows: Inhibitory activity to reduce the spontaneous beating of isolated guinea-pig atria in a concentration-dependent manner at the dose of 3 uM. It is filed as functional.
`COc1cc2c(cc1OC)CC(=O)N(CCCNCCOc1ccccc1)C=C2` had a Max inhibition of 80% and an inhibition at 3 µM of 53%.

With `COc1ccc(CCNCCCN2C=Cc3cc(OC)c(OC)cc3CC2=O)cc1`, the Max inhibition came to 69% and the inhibition at 3 µM came out at 60%.

For the compound `C=CCN(CCCN1C=Cc2cc(OC)c(OC)cc2CC1=O)CCc1ccccc1`, the Max inhibition is reported as 71% and the inhibition at 3 µM was 53%.

The compound `COc1cc2c(cc1OC)CC(=O)N(CCCNCCCCc1ccccc1)C=C2` returned a Max inhibition of 84% and an inhibition at 3 µM of 43%.

Compound `COc1cc2c(cc1OC)CC(=O)N(CCCNCCc1ccccc1)C=C2` yielded a Max inhibition of 81% and an inhibition at 3 µM of 60%.

With `C=CCN(CCCN1C=Cc2cc(OC)c(OC)cc2CC1=O)CCc1ccc(Cl)cc1`, the Max inhibition was determined as 60% and the inhibition at 3 µM was determined as 31%.

As for `C=CCN(CCCc1ccccc1)CCCN1C=Cc2cc(OC)c(OC)cc2CC1=O`, the Max inhibition is 100% and the inhibition at 3 µM was found to be 44%.

Consider `COc1ccc(CCNCCCN2CCc3cc(OC)c(OC)cc3CC2=O)cc1OC`, for which the Max inhibition was determined as 68% and the inhibition at 3 µM turned out to be 40%.

In the case of `COc1ccc(CCNCCCN2C=Cc3cc(OC)c(OC)cc3CC2=O)cc1OC`, the Max inhibition was 77% and the inhibition at 3 µM came to 59%.

`COc1cc2c(cc1OC)CC(=O)N(CCCNCCc1ccc(Cl)cc1)C=C2`: the Max inhibition is recorded as 68% and testing at 3 µM gave an inhibition of 60%.

Compound `C=CCN(CCCN1C=Cc2cc(OC)c(OC)cc2CC1=O)CCc1ccc(OC)cc1` returned a Max inhibition of 81% and an inhibition at 3 µM of 80%.

For `C=CCN(CCCCc1ccccc1)CCCN1C=Cc2cc(OC)c(OC)cc2CC1=O`, the Max inhibition was determined as 91% and the inhibition at 3 µM came to 54%.

On to `COc1ccc(CCN(CCCN2C=Cc3cc(OC)c(OC)cc3CC2=O)Cc2ccccc2)cc1OC`, for which the Max inhibition was 59% and the inhibition at 3 µM was found to be 25%.

The compound `C=CCN(CCCN1C=Cc2cc(OC)c(OC)cc2CC1=O)CCc1ccc(OC)c(OC)c1` had a Max inhibition of 69% and an inhibition at 3 µM of 34%.

`C=CCN(CCCN1C=Cc2cc(OC)c(OC)cc2CC1=O)CCOc1ccccc1` yielded a Max inhibition of 100% and an inhibition at 3 µM of 42%.

`COc1cc2c(cc1OC)CC(=O)N(CCCNCCCc1ccccc1)C=C2`: the Max inhibition stood at 60% and 3 µM produced 31% inhibition.
